For this test, the target named is T1, glucocerebrosidase (Homo sapiens, UniProt P04062).
T1 sequence (P04062 40-536): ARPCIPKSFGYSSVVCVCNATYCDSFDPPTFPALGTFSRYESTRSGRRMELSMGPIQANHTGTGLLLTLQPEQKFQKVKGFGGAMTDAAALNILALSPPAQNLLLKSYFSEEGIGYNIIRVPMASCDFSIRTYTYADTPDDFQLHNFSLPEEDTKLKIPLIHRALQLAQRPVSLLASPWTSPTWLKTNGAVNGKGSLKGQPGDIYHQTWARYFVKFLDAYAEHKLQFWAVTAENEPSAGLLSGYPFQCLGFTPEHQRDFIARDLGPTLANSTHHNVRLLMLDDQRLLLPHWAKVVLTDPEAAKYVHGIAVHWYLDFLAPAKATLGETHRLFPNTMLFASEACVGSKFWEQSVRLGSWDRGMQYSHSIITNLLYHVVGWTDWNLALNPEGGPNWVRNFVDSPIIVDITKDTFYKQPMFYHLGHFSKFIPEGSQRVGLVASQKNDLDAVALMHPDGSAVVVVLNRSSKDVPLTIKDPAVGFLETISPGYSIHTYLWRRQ
Kind of test: Glucocerebrosidase activity assay with blue substrate (4MU-Glc). The class given is biochemical. As for the experimental part:
Example 2—Glucocerebrosidase Activity Assay with Blue Substrate
The compounds in DMSO solution 0.5 μL/well were transferred to a black 96-well plate (the final titration was 24 nM to 50 μM, 12 concentrations, 2× dilution). 33.5 μL enzyme solution (7.5 nM final concentration) was transferred to the wells. After 5 min of incubation at room temperature, the enzyme reaction was initiated by the addition of 33 μL/well blue substrate. Final concentration of the blue substrate (4MU-Glc) was 1.5 mM. The blue substrate reaction was terminated by the addition of 33 μL/well stop solution (1 M NaOH and 1 M glycine mixture, pH 10) after 30 min of incubation at 37° C. The fluorescence was then measured in the Biotek Synergy H1 multi-mode plate reader with Ex=365 nm and Em=440 nm.
Additional compounds were synthesized and tested for glucocerebrosidase modulatory activity as described in Example 1 and Example 2.

[1] abbreviates: Table 1, 7.5 nM enzyme, 1.5 mM 4MU-Glc, 30 min at 37° C.
The mark [2] stands for this setting: Table 1, 7.5 nM enzyme, 1.5 mM 4MU-Glc, 30 min at 37° C., titration 24 nM to 50 μM.
Where [3] appears, read: Table 2, additional compounds, tested as described in Example 2.

Molecules are shown by their SMILES.

The results in this text go back to patent US12291533B2, “Substituted fused pyrimidine compounds and uses thereof” (Northwestern University, priority 2017, dated 2025).

Usually Emax stands for the size of the effect at its maximum, as opposed to the concentration needed. As a reminder, the AC50 is the midpoint of the concentration-response curve, whichever way the signal moves.

For the compound `CN(CCOc1ccccc1)c1nc(-c2cccnc2)nc2c1CCCC2` [Compound 58], the maximal effect (Emax) under setting [1] is 130%. Moreover, the AC50 under setting [2] worked out at 1.41 µM.
In the same order, the values of `CN(CCOc1cccc(C(=O)ON2C(=O)CCC2=O)c1)c1nc(-c2cccnc2)nc2ccccc12` [Compound 84] are 457% and 4.47 µM.
In the case of `CN(CCOc1ccccc1)c1nc(-c2cnc3ccccc3c2)nc2ccccc12` [Compound 145], under setting [3], the AC50 turned out to be 1.6 µM and the maximum response (Emax) worked out at 185%.
For `CCn1ncc2c(N(C)CCOc3ccc(CNC(=O)CCCCNC(=O)OC(C)(C)C)cc3)nc(-c3cccnc3)nc21` [Compound 141] the same measures were 0.5 µM and 800%.
Turning to `CCn1ncc2c(N(C)C[C@H]3COc4ccccc4O3)nc(-c3cccnc3)nc21` [Compound 106], under setting [1], the Emax was 250%. Moreover, the half-maximal activity concentration (AC50) under setting [2] worked out at 1.12 µM.
In the case of `CN(C)c1ccc2c(-c3ccc(C(=O)NCCOCCOCCOCCOCCC(=O)NCCCCCC(=O)Nc4ccc(-c5nc(N(C)CCOc6ccccc6)c6ccccc6n5)cc4)cc3C(=O)[O-])c3ccc(=[N+](C)C)cc-3oc2c1` [Compound 135], the half-maximal activity concentration (AC50) under setting [3] worked out at 1.67 µM.
In the case of `C#Cc1ccc(OCCN(C)c2nc(-c3cccnc3)nc3ccccc23)cc1` [Compound 33], under setting [1], the Emax came out at 190%. In addition, under setting [2], the AC50 was 2.82 µM.
Take `Cc1csc2c(N(C)CCOc3ccccc3)nc(-c3cccnc3)nc12` [Compound 64]: the Emax under setting [1] was 222%. The concentration at half-maximal activity (AC50) under setting [2] stood at 2.51 µM.
As for `CN(CCOc1ccccc1)c1cc(N2CCC(CO)CC2)nc(-c2cccnc2)n1` [Compound 174], under setting [3], the AC50 was 14.1 µM and the Emax turned out to be 625%.
On to `CN(CCOc1ccccc1)c1nc(-c2cncc(F)c2)nc2ccccc12` [Compound 35], for which the Emax under setting [1] came to 180%. The AC50 under setting [2] is 0.51 µM.
For `CCn1ncc2c(N(C)CCOc3ccc(C#N)cc3)nc(-c3ccsc3)nc21` [Compound 136], under setting [3], the concentration at half-maximal activity (AC50) was 2 µM and the maximal response (Emax) was 138%.
For `CN(CCOc1ccccc1)c1nc(-c2cccnc2)nc2c1cnn2Cc1ccccc1` [Compound 152] the same measures were 2 µM and 425%.
For the compound `CN(CCOc1ccccc1)c1nc(-c2cccnc2)nc2c1ccn2C` [Compound 72], the maximal response (Emax) under setting [1] was 927%. In addition, the AC50 under setting [2] is 6.31 µM.
In the same order, the values of `c1ccc(OCCOc2nc(-c3cccnc3)nc3ccccc23)cc1` [Compound 24] are 140% and 3.16 µM.
As for `CN(CCOc1cccc(CCO)c1)c1nc(-c2cccnc2)nc2ccccc12` [Compound 86], under setting [2], the AC50 stood at 15.8 µM.
For the compound `CCn1ncc2c(N(C)CCOc3ccc(CNC(=O)CCCCCNC(=O)OC(C)(C)C)cc3)nc(-c3cccnc3)nc21` [Compound 111], the maximal response (Emax) under setting [1] turned out to be 675%. Moreover, the AC50 under setting [2] was 0.5 µM.
In the same order, the values of `Cc1noc(C)c1-c1nc(N(C)CCOc2ccccc2)c2ccccc2n1` [Compound 47] are 175% and 2.21 µM.
Turning to `CN(CCOc1ccc2c(c1)CCCC2)c1nc(-c2cccnc2)nc2c1cnn2C` [Compound 103], the Emax under setting [1] is 371%. Moreover, the half-maximal activity concentration (AC50) under setting [2] is 3.16 µM.
Take `CCN1Cc2nc(-c3cccnc3)nc(N(C)CCOc3ccccc3)c2C1` [Compound 150]: under setting [3], the AC50 was determined as 1.25 µM and the Emax was 135%.
For `CN(CCC(=O)Nc1ccccc1)c1nc(-c2cccnc2)nc2ccccc12` [Compound 127] the same measures were 35.5 µM and 325%.
`CN(CCOc1ccccc1)c1nc(-c2cccnc2)nc2ccoc12` [Compound 67]: the Emax under setting [1] is 787%. The AC50 under setting [2] came to 10 µM.
For `CN(CCN(C)c1nc(-c2cccnc2)nc2ccccc12)c1ccccc1` [Compound 42] the same measures were 250% and 6.54 µM.
For `CCn1ncc2c(N(C)CCOc3ccc(CNC(=O)CCCCCNC(=O)CCOCCOCCOCCOCCNC(=O)OC(C)(C)C)cc3)nc(-c3cccnc3)nc21` [Compound 184], the half-maximal activity concentration (AC50) under setting [3] stood at 2.82 µM.
With `CCn1ncc2c(N(C)CCOc3ccc(CNC(C)=O)cc3)nc(-c3cccnc3)nc21` [Compound 125], under setting [3], the AC50 came to 6.31 µM and the maximal response (Emax) is 610%.
With `CCn1ncc2c(N3CCC[C@H](Oc4ccccc4)C3)nc(-c3cccnc3)nc21` [Compound 163], under setting [3], the AC50 is 25.1 µM and the maximum response (Emax) came to 475%.
`CN(CC1CCc2ccccc2C1)c1nc(-c2cccnc2)nc2ccccc12` (stereo not drawn) [Compound 75]: the maximal response (Emax) under setting [1] came out at 115%. For the same compound, the AC50 under setting [2] stood at 2 µM.
Turning to `CCn1ncc2c(N3CC[C@H](Oc4ccccc4)C3)nc(-c3cccnc3)nc21` [Compound 156], under setting [3], the AC50 came to 39.8 µM and the maximum response (Emax) stood at 220%.
As to `CC(C)n1ncc2c(N(C)CCOc3ccccc3)nc(-c3cccnc3)nc21` [Compound 98], under setting [1], the maximum response (Emax) was determined as 140%. Further, the concentration at half-maximal activity (AC50) under setting [2] was 28.2 µM.
Regarding `CN(CCOc1ccccc1)c1nc(-c2cccnc2F)nc2ccccc12` [Compound 34], the Emax under setting [1] turned out to be 160%. Besides, under setting [2], the AC50 was 1.12 µM.
Consider `c1ccc(OC2CCN(c3nc(-c4cccnc4)nc4ccccc34)CC2)cc1` [Compound 166], for which, under setting [3], the AC50 is 6.31 µM and the Emax was 276%.
Turning to `CN(c1nc(-c2cccnc2)nc2c1cnn2C)C1CCCN(c2ccccc2)C1` (stereo not drawn) [Compound 88], the maximal effect (Emax) under setting [1] was determined as 142%. For the same compound, under setting [2], the AC50 is 5.01 µM.
With `CN(CCOC1CCCCC1)c1nc(-c2cccnc2)nc2c1cnn2C` [Compound 102], the concentration at half-maximal activity (AC50) under setting [2] turned out to be 25.1 µM.
Turning to `Cn1ncc2c(NCC3CCc4ccccc4O3)nc(-c3cccnc3)nc21` (stereo not drawn) [Compound 87], the maximal response (Emax) under setting [1] is 173%. The AC50 under setting [2] stood at 10 µM.
Turning to `CN(CCOc1ccccc1)c1nc(-c2cccnc2)nc2ccsc12` [Compound 59], the maximal response (Emax) under setting [1] was determined as 333%. Further, the AC50 under setting [2] turned out to be 5.01 µM.
In the same order, the values of `O=C(CCCCCCCN(CCOc1ccccc1)c1nc(-c2cccnc2)nc2ccccc12)ON1C(=O)CCC1=O` [Compound 20] are 500% and 1.26 µM.
For `O=C(O)CCCCCCCN(CCOc1ccccc1)c1nc(-c2cccnc2)nc2ccccc12` [Compound 19] the same measures were 150% and 1.78 µM.
For `Cc1ccccc1OCCN(C)c1nc(-c2cccnc2)nc2ccccc12` [Compound 28] the same measures were 350% and 3.16 µM.
As to `CN(CCOc1ccccc1)c1nc(-c2cccnc2)nc2ccc(F)cc12` [Compound 40], the Emax under setting [1] came out at 450%. The AC50 under setting [2] worked out at 1.58 µM.
Consider `CCCn1ncc2c(N(C)CCOc3ccccc3)nc(-c3cccnc3)nc21` [Compound 187], for which, under setting [3], the half-maximal activity concentration (AC50) came out at 0.8 µM and the Emax was 325%.
Take `Cc1sc2nc(-c3cccnc3)nc(N(C)CCOc3ccccc3)c2c1C` [Compound 55]: the Emax under setting [1] worked out at 458%. Moreover, the AC50 under setting [2] stood at 39.8 µM.
`CN(CC1Cc2ccccc2O1)c1nc(-c2cccnc2)nc2ccccc12` (stereo not drawn) [Compound 82]: under setting [1], the maximal effect (Emax) came to 501%. The AC50 under setting [2] was found to be 1.12 µM.
